Measured values reported in patent US7989464B2, “mGluR1 antagonists as therapeutic agents” (Schering Corporation, priority 2004, dated 2011).
Where two headings read alike, the source gives them in different places.

Target: T1, hmGluR1 receptor (Homo sapiens, UniProt Q13255)
T1 construct: expressed in transfected cells
Assay: IC50 determination: intracellular calcium mobilization (FLIPR) upon Quisqualate stimulation in CHO cells stably expressing hmGluR1
Format: cell-based
Conditions: against Quisqualate 1 μM (EC80)
Procedure: A CHO cell line stably expressing hmGluR1 receptor was established. One day prior to assay, cells were split in growth media at concentration of 50,000 cells/well in a volume of 100 μl and seeded into black clear-bottom 96-well plates. After two to six hours, when cells were well attached to the plate, growth medium was replaced with assay medium (100 μL) consisting of DMEM high glucose, supplemented with GPT (1 U/mL) and Sodium pyruvate, 1 mM. Following overnight incubation, medium was discarded and cells were loaded for 2 h with dye from the Calcium 3 Assay Reagent Kit (Molecular Devices, # R8033), prepared according to manufacturers' instructions. […] Test compounds were added 10 minutes before Quisqualate.

[1] = FLIPR calcium mobilization, read-out: IC50 Class
[2] = class symbols, read-out: mGIuR 1 IC50
[3] = FLIPR calcium mobilization, read-out: mGluR1 IC50

T1 sequence (Q13255 19-1194): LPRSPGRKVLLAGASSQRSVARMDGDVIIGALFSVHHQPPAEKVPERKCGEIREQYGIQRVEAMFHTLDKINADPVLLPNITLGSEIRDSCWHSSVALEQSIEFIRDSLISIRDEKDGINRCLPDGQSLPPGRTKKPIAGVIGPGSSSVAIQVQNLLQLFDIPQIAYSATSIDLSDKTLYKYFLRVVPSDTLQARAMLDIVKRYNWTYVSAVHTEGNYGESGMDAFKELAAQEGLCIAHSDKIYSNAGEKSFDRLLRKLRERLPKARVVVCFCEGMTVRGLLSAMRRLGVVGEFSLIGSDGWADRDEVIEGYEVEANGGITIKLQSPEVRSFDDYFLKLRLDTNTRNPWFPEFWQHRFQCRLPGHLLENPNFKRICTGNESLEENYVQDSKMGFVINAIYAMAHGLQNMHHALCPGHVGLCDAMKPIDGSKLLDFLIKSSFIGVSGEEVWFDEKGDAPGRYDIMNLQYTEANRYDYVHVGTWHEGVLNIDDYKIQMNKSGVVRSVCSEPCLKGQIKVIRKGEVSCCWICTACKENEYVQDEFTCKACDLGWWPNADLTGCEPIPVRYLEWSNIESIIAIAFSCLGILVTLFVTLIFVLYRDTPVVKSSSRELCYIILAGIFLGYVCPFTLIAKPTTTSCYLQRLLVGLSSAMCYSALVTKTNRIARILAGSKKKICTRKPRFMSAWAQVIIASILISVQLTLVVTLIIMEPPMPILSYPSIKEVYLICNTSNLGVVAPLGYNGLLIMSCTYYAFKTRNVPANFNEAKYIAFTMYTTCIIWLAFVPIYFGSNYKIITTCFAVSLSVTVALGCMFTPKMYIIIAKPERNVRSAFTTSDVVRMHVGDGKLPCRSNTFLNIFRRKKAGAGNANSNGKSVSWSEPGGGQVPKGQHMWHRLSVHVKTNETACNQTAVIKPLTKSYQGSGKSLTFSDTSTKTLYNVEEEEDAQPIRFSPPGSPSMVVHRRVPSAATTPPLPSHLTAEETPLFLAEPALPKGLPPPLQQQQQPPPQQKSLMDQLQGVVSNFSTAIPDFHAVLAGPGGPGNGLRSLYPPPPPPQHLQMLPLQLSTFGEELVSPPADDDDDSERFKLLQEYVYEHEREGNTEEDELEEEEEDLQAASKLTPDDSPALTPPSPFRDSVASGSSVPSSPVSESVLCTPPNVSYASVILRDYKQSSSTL

SMILES | IC50 [1] | IC50 [2] | also measured
O=c1c2sc3nccc(NC4CC4)c3c2ncn1-c1ccncc1 [28ED] | 0.15 to 1 µM | – | –
CCN(CC)c1ccnc2sc3c(=O)n(C4CCCCC4)cnc3c12 [28J] | – | 0.15 to 1 µM | –
CCOC(=O)N1CCC(n2cnc3c(sc4nccc(N(C)C)c43)c2=O)CC1 [7J] | – | > 1 µM | –
CN(C)c1ccnc2sc3c(=O)n(-c4ccc5[nH]nnc5c4)cnc3c12 [7AO] | – | 0.15 to 1 µM | –
O=c1c2sc3c(ccc[n+]3[O-])c2ncn1-c1ccccc1 [12A] | – | 0.15 to 1 µM | –
CCN(C)c1ccnc2sc3c(=O)n(-c4ccc(OC)cc4C)cnc3c12 [28BV] | < 0.05 µM | – | –
CC(=O)Oc1ccc(-n2cnc3c(sc4nccc(N(C)C)c43)c2=O)cc1 [compound 138] | – | < 0.05 µM | –
Nc1ccnc2sc3c(=O)n(-c4ccc(Cl)cc4)cnc3c12 [28FK] | < 0.05 µM | – | –
O=c1c2sc3nccc(Nc4ccccc4)c3c2ncn1C1CCCCC1 [28H] | – | > 1 µM | –
Cc1nc2cc(-n3cnc4c(sc5nccc(N(C)C)c54)c3=O)ccc2s1 [7AT] | – | > 1 µM | –
Cc1nc2cc(-n3cnc4c(sc5nccc(N(C)C)c54)c3=O)ccc2o1 [7BU] | – | > 1 µM | –
CN(C)c1ccnc2sc3c(=O)n(-c4ccc5ncoc5c4)cnc3c12 [7BS] | – | < 0.05 µM | –
CC(C)(C)Nc1ccnc2sc3c(=O)n(-c4ccc(Cl)cc4)cnc3c12 [28EP] | 0.15 to 1 µM | – | –
CCN(C)c1ccnc2sc3c(=O)n(-c4cccc(F)c4)cnc3c12 [28CM] | < 0.05 µM | – | –
CCCNc1ccnc2sc3c(=O)n(-c4ccc(OC)cc4)cnc3c12 [28AR] | – | < 0.05 µM | –
COC(=O)c1sccc1-n1cnc2c(sc3nccc(N(C)C)c32)c1=O [7AU] | – | > 1 µM | –
CN1CCC(n2cnc3c(sc4nccc(N(C)C)c43)c2=O)CC1 [15U] | – | 0.15 to 1 µM | –
CNc1ccnc2sc3c(=O)n(-c4ccc(O)cc4)cnc3c12 [7CD] | – | < 0.05 µM | –
CN(C)c1ccnc2sc3c(=O)n(Cc4ccccc4)cnc3c12 [7C] | – | 0.05 to 0.15 µM | –
CCNc1ccnc2sc3c(=O)n(-c4ccc(OC)cc4F)cnc3c12 [28BJ] | 0.05 to 0.15 µM | – | –
CC(C)Nc1ccnc2sc3c(=O)n(-c4ccc(Br)cc4)cnc3c12 [28HD] | 0.15 to 1 µM | – | –

SMILES | IC50 [1] | IC50 [2] | also measured
CS(=O)(=O)N1CCN(c2ccnc3sc4c(=O)n(C5CCCCC5)cnc4c23)CC1 [compound 63] | – | 0.15 to 1 µM | –
CN(C)c1cncc2sc3c(=O)n(-c4ccccc4)cnc3c12 [37D] | – | 0.15 to 1 µM | –
COc1ccc(-n2cnc3c(sc4nccc(N(C)C)c43)c2=O)c(F)c1 [7DK] | – | < 0.05 µM | –
CN(N)c1ccnc2sc3c(=O)n(-c4ccc(Cl)cc4)cnc3c12 [28DM] | > 1 µM | – | –
C#CCNc1ccnc2sc3c(=O)n(-c4ccc(C)cc4)cnc3c12 [28Z] | – | < 0.05 µM | IC50 [3]: 0.00147 µM
Cc1ccc(-n2cnc3c(sc4ncc(Br)c(Cl)c43)c2=O)cc1 [compound 171] | > 1 µM | – | –
CNc1c(C#N)cnc2sc3c(=O)n(C4CCCCC4)cnc3c12 [compound 48] | – | 0.15 to 1 µM | –
CN(C)c1ccnc2sc3c(=O)n(-c4ccc5c(c4)OCO5)cnc3c12 [7A] | – | < 0.05 µM | –
Cc1ccc(Nn2cnc3c(sc4nccc(N(C)C)c43)c2=O)cc1 [60C] | – | < 0.05 µM | –
CN(C)c1ccnc2sc3c(=O)n(C4CCC4)cnc3c12 [15J] | – | 0.05 to 0.15 µM | –
Cc1ccc(F)c(-n2cnc3c(sc4nccc(N(C)C)c43)c2=O)c1 [7DZ] | – | < 0.05 µM | –
CCc1ccc(-n2cnc3c(sc4nc(C)cc(N(C)C)c43)c2=O)cc1 [7CP] | – | 0.05 to 0.15 µM | –
CC(=O)Nc1ccc(-n2cnc3c(sc4nccc(N(C)C)c43)c2=O)cc1 [7AL] | – | > 1 µM | –
CN(C)c1ccnc2sc3c(=O)n(C4CCC(C(C)(C)C)CC4)cnc3c12 (stereo not shown) [15M] | – | > 1 µM | –
Cc1cc(N(C)C)c2c(n1)sc1c(=O)n(-c3ccc(F)cc3)cnc12 [7DC] | – | < 0.05 µM | –
COc1ccc(-n2cnc3c(sc4nccc(N(C)C)c43)c2=O)c(C)c1 [7DI] | – | < 0.05 µM | –
O=c1c2sc3nccc(NCCCO)c3c2ncn1-c1ccc(Br)cc1 [28GQ] | < 0.05 µM | – | IC50 [3]: 0.00066 µM
COCCCNc1ccnc2sc3c(=O)n(-c4ccc(OS(=O)(=O)C(F)(F)F)cc4)cnc3c12 [28HX] | 0.15 to 1 µM | – | –
CN(C)c1ccnc2sc3c(=O)n(-c4cccc5nonc45)cnc3c12 [7BR] | – | 0.15 to 1 µM | –
Cc1ccc(-n2cnc3c(sc4nccc(NC5CCC5)c43)c2=O)cc1 [28DA] | 0.15 to 1 µM | – | –
CN(C)c1ccnc2sc3c(=O)n(C4Cc5ccccc5C4)cnc3c12 [15Y] | – | < 0.05 µM | –

SMILES | IC50 [1] | IC50 [2] | also measured
CC1CCCC(C)N1n1cnc2c(sc3nccc(N(C)C)c32)c1=O (stereo not shown) [60F] | – | 0.05 to 0.15 µM | –
CN(C)c1ccnc2sc3c(=O)n(-c4ccc(Br)cc4F)cnc3c12 [7DU] | – | < 0.05 µM | –
C=C(C)CNc1ccnc2sc3c(=O)n(-c4ccc(C)cc4)cnc3c12 [28EW] | < 0.05 µM | – | –
O=c1c2sc3nccc(OS(=O)(=O)C(F)(F)F)c3c2ncn1C1CCCCC1 [27A] | – | > 1 µM | –
O=c1c2sc3nccc(NCCO)c3c2ncn1-c1ccc(F)cc1 [28GC] | 0.05 to 0.15 µM | – | –
CN(C)c1c(Cl)ncc2sc3c(=O)n(-c4ccc(Cl)cc4)cnc3c12 [compound 54] | – | 0.15 to 1 µM | –
CN(C)c1ccnc2sc3c(=O)n(-c4ccc(C(F)(F)F)cc4)cnc3c12 [7DO] | – | < 0.05 µM | –
CN(C)c1ccnc2sc3c(=O)n(-c4ccc5c(c4)OCCCO5)cnc3c12 [7CH] | – | 0.15 to 1 µM | –
CN(C)c1ccnc2sc3c(=O)n(CC4CCCO4)cnc3c12 (stereo not shown) [15F] | – | 0.15 to 1 µM | –
CN(C)c1ccnc2sc3c(=O)n(Nc4ccccc4)cnc3c12 [60B] | – | < 0.05 µM | –
Cc1ccc(-n2cnc3c(sc4nccc(N(C)C)c43)c2=O)cc1Cl [7DG] | – | < 0.05 µM | –
O=c1c2sc3nccc(NC4CCCCC4)c3c2ncn1C1CCCCC1 [28C] | – | > 1 µM | –
CN(C)c1ccnc2sc3c(=O)n(-c4ccc(CC#N)cc4)cnc3c12 [7BC] | – | > 1 µM | –
CCN(C)c1ccnc2sc3c(=O)n(-c4ccc(OC)cc4)cnc3c12 [7CE] | – | < 0.05 µM | –
COc1ccc(-n2cnc3c(sc4nc(Cl)cc(N)c43)c2=O)cc1 [59I] | 0.05 to 0.15 µM | – | –
CN(C)c1ccnc2sc3c(=O)n(C4CCC5(CC4)OCCO5)cnc3c12 [compound 19] | – | 0.15 to 1 µM | –
COc1ccc(Nc2ccnc3sc4c(=O)n(-c5ccc(OC)cc5)cnc4c23)cc1 [28FP] | 0.15 to 1 µM | – | –
O=c1c2sc3nc(Cl)ccc3c2ncn1-c1ccccc1 [compound 14] | – | > 1 µM | –
CSCCNc1ccnc2sc3c(=O)n(-c4ccc(C)cc4)cnc3c12 [28EV] | < 0.05 µM | – | –
COc1ccc(-n2cnc3c(sc4nccc(OC)c43)c2=O)c(F)c1 [25E] | > 1 µM | – | –
CC(CO)Nc1ccnc2sc3c(=O)n(-c4ccc(Br)cc4)cnc3c12 (stereo not shown) [28HC] | 0.05 to 0.15 µM | – | –

The next lines start with results.

IC50 [1] | IC50 [2] | SMILES | also measured
– | 0.15 to 1 µM | CCCc1nc2c(sc3nccc(N(C)C)c32)c(=O)n1-c1ccc(C)cc1 [116B] | –
> 1 µM | – | CN(C)c1cccc2sc3c(=O)n(-c4cccc(F)c4F)cnc3c12 [103O] | –
0.15 to 1 µM | – | C=C(C)CNc1ncnc2sc3c(=O)n(-c4ccncc4)cnc3c12 [95FJ] | –
0.15 to 1 µM | – | COc1cccc2sc3c(=O)n(-c4ccc(Cl)cc4)cnc3c12 [103S] | –
– | < 0.05 µM | CN(C)c1ccnc2sc3c(=O)n(-c4ccc(C5CC5)cc4)cnc3c12 [137A] | –
– | < 0.05 µM | Cc1ccc(-n2cnc3c(sc4nccc(N)c43)c2=O)cc1 [72H] | –
– | 0.15 to 1 µM | CN(C)c1cccc2sc3c(=O)n(-c4ccc5scnc5c4)cnc3c12 [103F] | –
– | < 0.05 µM | COc1ccc(-n2c(C)nc3c(sc4nccc(N(C)C)c43)c2=O)cc1 [116D] | –
< 0.05 µM | – | CN(C)c1ncnc2sc3c(=O)n(-c4ccc5occc5c4)cnc3c12 [95AP] | IC50 [3]: 0.0016 µM
0.15 to 1 µM | – | COc1ccc(Nc2ncnc3sc4c(=O)n(C5CC5)cnc4c23)cc1 [95GL] | –
0.05 to 0.15 µM | – | O=c1c2sc3ncnc(NCC4CC4)c3c2ncn1-c1ccc(Cl)cc1 [95DR] | –
– | 0.05 to 0.15 µM | CCN(C)c1ncnc2sc3c(=O)n(-c4cccnc4)cnc3c12 [95M] | –
< 0.05 µM | – | Cc1ccc(-n2cnc3c(sc4ncnc(N(C)C5CC5)c43)c2=O)cc1 [95DZ] | –
– | < 0.05 µM | CN(C)c1ncnc2sc3c(=O)n(-c4ccc5ncsc5c4)cnc3c12 [95C] | –
< 0.05 µM | – | C#CCNc1ncnc2sc3c(=O)n(-c4ccc(C)cc4)cnc3c12 [95EH] | –
– | 0.05 to 0.15 µM | CCc1nc2c(sc3nccc(N(C)C)c32)c(=O)n1-c1ccc(C)cc1 [116A] | –

IC50 [1] | IC50 [2] | SMILES | also measured
< 0.05 µM | – | Cc1ccc(-n2cnc3c(sc4ncnc(NCCCCO)c43)c2=O)cc1 [95DN] | –
> 1 µM | – | COc1ccc(Nc2ncnc3sc4c(=O)n(C)cnc4c23)cc1 [95GN] | –
0.05 to 0.15 µM | – | COc1ccc(Nc2ncnc3sc4c(=O)n(-c5ccc(C)cc5)cnc4c23)cc1 [95GJ] | –
< 0.05 µM | – | C=CCOc1ccnc2sc3c(=O)n(-c4ccc(Br)cc4)cnc3c12 [66J] | –
0.15 to 1 µM | – | C#CCNc1ncnc2sc3c(=O)n(-c4ccc5ncsc5c4)cnc3c12 [95EM] | –
0.15 to 1 µM | – | COc1ccc(-n2cnc3c(sc4ncnc(NCc5ccco5)c43)c2=O)cc1 [95GQ] | –
< 0.05 µM | – | CNc1c(C2CC2)cnc2sc3c(=O)n(-c4ccc(OC)cc4)cnc3c12 [137E] | –
> 1 µM | – | CCOC(=O)c1cc2c(nc1C(F)(F)F)sc1c(=O)n(-c3ccc(C)cc3)cnc12 [144C] | –
< 0.05 µM | – | CNc1cc(O)nc2sc3c(=O)n(-c4ccc(C)cc4)cnc3c12 [172B] | –
0.05 to 0.15 µM | – | C=C(C)CNc1ncnc2sc3c(=O)n(-c4cccc(Cl)c4)cnc3c12 [95FK] | –
> 1 µM | – | C#CCOc1nncc2sc3c(=O)n(-c4ccc(C)cc4)cnc3c12 [167E] | –
– | < 0.05 µM | CCNc1ncnc2sc3c(=O)n(-c4ccc(C)cc4)cnc3c12 [95P] | –
> 1 µM | – | COc1ccc(Nc2ncnc3sc4c(=O)n(-c5ccc(F)cc5)cnc4c23)cc1 [95GK] | –
0.15 to 1 µM | – | COc1ncnc2sc3c(=O)n(-c4ccc(C)cc4)cnc3c12 [95FN] | –
– | < 0.05 µM | Cc1ccc(-n2cnc3c(sc4nc(N)nc(N)c43)c2=O)cc1 [71A] | –
